The values that follow come from patent US20040176339A1, “Antineoplastic combinations” (Wyeth, priority 2003, published 2004).

Series [1] in a line: Clinical trial of CCI-779 plus letrozole: safety/tolerability. On the procedure: (§1) The combination of CCI-779 and letrozole in postmenopausal women with locally advanced or metastatic breast cancer is being evaluated in this clinical trial.
(§2) Randomization is in a 1:1:1 ratio (˜30 evaluable pts/arm), letrozole alone: letrozole with CCI daily (CCI daily arm): letrozole with CCI daily for 5 days every 2 weeks (CCI intermittent arm). All pts receive 2.5 mg letrozole daily.
(§3) Thus, the protocol was amended and doses were reduced to low dose (LD) schedules, 10 mg CCI daily and 30 mg CCI intermittent. As of 1 Dec.

For series [2], the system named is locally advanced or metastatic breast cancer. The series is described as follows: Clinical trial of CCI-779 plus letrozole: preliminary tumor responses (RECIST). It is filed as in vivo, postmenopausal women. The settings on record: for pts with SD 24 wk: CCI pts on HD schedules, letrozole-alone pts; for partial responses (RECIST): evaluable pts: CCI n=13 (responders on HD schedules), letrozole alone n=6; for stable disease (RECIST): evaluable pts: CCI n=13, letrozole alone n=6. On the procedure: as §1, §2, §3

Series [3] relates to histologically diverse tumor cells. The following applies: cited from earlier work.
Series [4] relates to human tumor xenografts. The following applies: nude mice, cited from earlier work.
A short description of series [5]: Stability of CCI-779 in parenteral cosolvent formulation. The series is classed as physicochemical. The following applies: citric acid at a concentration of less than 0.01% w/v. From the text: In this embodiment, the stability of CCI-779 in parenterally acceptable alcoholic cosolvents is enhanced by addition of an antioxidant to the formulation. Acceptable antioxidants include, but are not limited to, citric acid, d,l-α-tocopherol, BHA, BHT, monothioglycerol, ascorbic acid, propyl gallate, and mixtures thereof. Generally, the parenteral formulations useful in this embodiment of the invention will contain an antioxidant component(s) in a concentration ranging from 0.001% to 1% w/v, or 0.01% to 0.5% w/v, of the cosolvent concentrate, although lower or higher concentrations may be desired. Of the antioxidants, d,l-α-tocopherol is particularly desirable and is used at a concentration of 0.01 to 0.1% w/v with a preferred concentration of 0.075% w/v of the cosolvent concentrate.
Examples of such chelating agents include, e.g., citric acid, acetic acid, and ascorbic acid (which may function as both a classic antioxidant and a chelating agent in the present formulations). Other chelating agents include such materials as are capable of binding metal ions in solution, such as ethylene diamine tetra acetic acid (EDTA), its salts, or amino acids such as glycine are capable of enhancing the stability of CCI-779. […] Optimal concentrations for the selected antioxidant(s) can be readily determined by one of skill in the art, based upon the information provided herein.

Series [6] concerns human glioblastoma cell line. The settings on record: in vitro; cited from earlier work.

Consider `N#Cc1ccc(C(c2ccc(C#N)cc2)n2cncn2)cc1` [letrozole, reference compound], for which the “grade 3-4 toxicities” value in series [1] (letrozole alone 2.5 mg daily, 12 pts) was “No grade 3-4 toxicities”. In series [2], the “pts with SD 24 wk” value was 1 pts, the “partial responses (RECIST)” value amounted to 2 pts and the “stable disease (RECIST)” value worked out at 4 pts.

As for `CO[C@H]1C[C@@H]2CC[C@@H](C)[C@@](O)(O2)C(=O)C(=O)N2CCCC[C@H]2C(=O)O[C@H]([C@H](C)C[C@@H]2CC[C@@H](OC(=O)C(C)(CO)CO)[C@H](OC)C2)CC(=O)[C@H](C)/C=C(\C)[C@@H](O)[C@@H](OC)C(=O)[C@H](C)C[C@H](C)/C=C/C=C/C=C/1C` [CCI-779, Rapamycin 42-ester with 3-hydroxy-2-(hydroxymethyl)-2-methylpropionic acid], the “growth of tumor cells in vitro” value in series [3] (CNS cancer, leukemia (T-cell), breast cancer, prostate cancer and melanoma lines among the most sensitive) was “inhibit the growth”. Moreover, in series [3] (in vitro tumor cells), the cell cycle effect entry is on record as “arrested cells in the G1 phase”. The “activity in orthotopic glioma model” value in series [4] is listed as “active”. Moreover, the “activity against human tumor xenografts” value in series [4] (diverse histological types, gliomas particularly sensitive) was “has activity against human tumor xenografts”. Moreover, in series [4] (several human pancreatic tumors, one of two breast cancer lines), the “growth of human pancreatic tumors and breast cancer lines in vivo” value is “inhibited”. Also, the “stability of CCI-779 in formulation” value in series [5] was “enhanced the stability”. The “patients with toxicity that resulted in dose delay/reduction or discontinuation” value in series [1] (female, human, in vivo) is 3 patients. In addition, the “growth factor (platelet-derived)-induced stimulation of glioblastoma cells” value in series [6] was “markedly suppressed”. The “stable disease, pts on HD schedules” value in series [2] (CCI HD schedules (25 mg daily / 75 mg intermittent) with letrozole) was determined as 6 pts. Besides, the “stable disease, pts on LD schedules” value in series [2] (CCI LD schedules (10 mg daily / 30 mg intermittent) with letrozole) was 3 pts. In series [2], the “pts with SD 24 wk” value is on record as 4 pts, the “partial responses (RECIST)” value was 3 pts and the “stable disease (RECIST)” value is 9 pts. Besides, in series [2] (evaluable CCI pts n=13, responder on HD schedule), the “complete response (RECIST)” value worked out at 1 pts.
